Test system: PC-3-Bcl-2 prostate cancer cells
Assay: In vitro cytotoxicity assay
Type: cell-based, Human
Details: for cytotoxic effects: up to 100,000 nM, PC-3-Bcl-2, in words; for cytotoxic effects / inhibition of proliferation and viability compared to control: 96 h; for inhibition of proliferation and viability compared to control / % surviving fraction compared to mock: MTT, PC-3-Bcl-2; for % surviving fraction compared to mock: 96 hours

SMILES	cytotoxic effects	inhibition of proliferation and viability compared to control (0.1 mM) [%]	% surviving fraction compared to mock (0.1 mM) [%]	inhibition of proliferation and viability compared to control (0.01 mM) [%]
CC(=O)Nc1nnc(S(N)(=O)=O)s1 [AZM, N-(5-(aminosulfonyl)-1,3,4-thiadiazol-2-yl)-acetamide]	no cytotoxic effects	–	–	–
NS(=O)(=O)c1nnc(NS(=O)(=O)c2ccccc2)s1 [BZM, 1,3,4-Thiadiazole-2-sulfonamide, 5-((phenylsulfonyl)amino)]	no cytotoxic effects	–	–	–
NS(=O)(=O)c1nnc(-c2ccccc2Cl)s1 [CHL, 5-[o-chlorophenyl]-1,3,4-thiadiazole-2-sulfonamide]	–	57	43	–
CCOc1ccc2nc(S(N)(=O)=O)sc2c1 [EZM, 6-ethoxybenzothiazole-2-sulfonamide]	no cytotoxic effects	–	–	–
CC(=O)/N=c1/sc(S(N)(=O)=O)nn1C [MZM, N-(3-methyl-5-sulfamoyl-3H-1,3,4-thiadiazol-2-ylidene)]	–	32	68	29
